In patent US20210038681A1, “PHARMACEUTICAL COMPOSITION FOR TREATING VIRAL HEPATITIS C” (priority 2018, published 2021):
Where two headings read alike, the source gives them in different places.

Assays:
[1] = test system: HCV genotype 2a NS5A replicon cells; assay: Standard 3-day HCV replicon assay; assay type: cell-based; settings: Hepatitis C virus, 72 h
[2] = test system: HCV genotype 7a NS5A replicon cells; assay: Standard 3-day HCV replicon assay; assay type: cell-based; settings: Hepatitis C virus, 72 h
[3] = test system: Wild-type HCV 1b replicon; assay type: cell-based; settings: Hepatitis C virus, read-out: Mean EC50 (nM)
[4] = test system: HCV genotype 3a NS5A replicon cells; assay: Standard 3-day HCV replicon assay; assay type: cell-based; settings: Hepatitis C virus, 72 h
[5] = test system: HCV 3a NS5A Y93H replicon cells; assay type: cell-based; settings: read-out: Mean EC50 (nM) ±SD; HCV genotype 3a, variant Y93H*; replicon cells from cell passage assay
BVDV, HRV-16, Flu-B = assay: Virus-cell protection assay, all tested viruses; assay type: cell-based; settings: Bovine viral diarrhea virus isolates and strains, HRV16, all of BVDV, read-out: EC50 against any of the tested viruses
[6] = test system: HCV genotype 1b replicon cells; assay: Standard 3-day HCV replicon assay; assay type: cell-based; settings: Hepatitis C virus, 72 h, 3 days, 5% fetal bovine serum
[7] = test system: human rhinovirus 16 (HRV-16); assay: Virus-cell protection assay; assay type: cell-based; settings: Rhinovirus A, HRV16; Virus HRV-16, cell line HeLa
[8] = test system: HCV 1b L31F + Y93H replicon; assay: microbe, parasite or virus in culture; assay type: cell-based
Description: (§1) The susceptibility degrees of WT replicons in the transient assay were similar to the values obtained from a cell assay using the stable HCV replicons.

HCV 1a M28T replicon = assay: microbe, parasite or virus in culture; assay type: cell-based
Description: as §1

HCV 2a NS5A WT replicon = assay: microbe, parasite or virus in culture; assay type: cell-based
Description: as §1

[9] = test system: HCV 2a NS5A Y93H replicon; assay: microbe, parasite or virus in culture; assay type: cell-based
Description: as §1

HCV 1b Y93H replicon = assay: microbe, parasite or virus in culture; assay type: cell-based
Description: as §1

[10] = test system: HCV 4a NS5A P58L replicon; assay: microbe, parasite or virus in culture; assay type: cell-based
Description: as §1

HCV 3a NS5A WT replicon = assay: microbe, parasite or virus in culture; assay type: cell-based
Description: as §1

HCV 1a Q30K replicon = assay: microbe, parasite or virus in culture; assay type: cell-based
Description: as §1

HCV 1a Q30R replicon = assay: microbe, parasite or virus in culture; assay type: cell-based
Description: as §1

HCV 1a Y93C replicon = assay: microbe, parasite or virus in culture; assay type: cell-based
Description: as §1

[11] = test system: HCV 4a NS5A L30H replicon; assay: microbe, parasite or virus in culture; assay type: cell-based
Description: as §1

[12] = test system: bovine viral diarrhea virus (BVDV); assay: Virus-cell protection assay; assay type: cell-based; settings: Bovine viral diarrhea virus isolates and strains, cell line BT
in vitro [13] = settings: human, HeLa cells (uninfected; HeLa H1A in the text)
[14] = test system: HCV genotype 6a NS5A replicon cells; assay: Standard 3-day HCV replicon assay; assay type: cell-based; settings: Hepatitis C virus, 72 h
in vitro [15] = settings: dog, MDCK cells (uninfected)
[16] = test system: HCV genotype 4a NS5A replicon cells; assay: Standard 3-day HCV replicon assay; assay type: cell-based; settings: Hepatitis C virus, 72 h
[17] = test system: HCV 4a NS5A L30H + Y93H replicon; assay type: cell-based; settings: HCV genotype 4a, variant L30H + Y93H; EC50 relative to WT
Description: as §1

[18] = test system: HCV 1b L31V + Y93H replicon; assay type: cell-based; settings: HCV genotype 1b, variant L31V + Y93H; EC50 relative to WT
Description: as §1

[19] = test system: HCV 2a NS5A F28S replicon; assay type: cell-based; settings: HCV genotype 2a, variant F28S; EC50 relative to WT
Description: as §1

[20] = test system: HCV 6a NS5A F28S replicon; assay type: cell-based; settings: HCV genotype 6a, variant F28S; EC50 relative to WT
Description: as §1

[21] = Hepatitis C virus, read-out: Mean EC50 (nM) ±SD

With `COC(=O)N[C@H](C(=O)N1CCC[C@H]1c1ncc(-c2ccc3cc(-c4ccc5nc([C@@H]6CCCN6C(=O)[C@@H](NC(=O)OC)C(C)C)[nH]c5c4)ccc3c2)[nH]1)C(C)C` [ASC16, Ravidasvir] the EC50 [1] was 0.12 ng/mL, the EC90 [1] was 0.38 ng/mL and the EC50 ([1]; read-out: EC50 (nM) Mean ± SD) was 0.14 ± 0.03 nM. It also gave an EC90 ([1]; read-out: EC90 (nM) Mean ± SD) of 0.45 ± 0.1 nM, an EC50 [2] of 0.06 ng/mL and an EC90 [2] of 0.17 ng/mL. The EC50 ([2]; read-out: EC50 (nM) Mean ± SD) was 0.07 ± 0.02 nM, the EC90 ([2]; read-out: EC90 (nM) Mean ± SD) was 0.2 ± 0.05 nM and the EC50 [3] was 0.01 nM. The EC50 [4] was 0.95 ng/mL, the EC90 [4] was 2.8 ng/mL and the EC50 ([4]; read-out: EC50 (nM) Mean ± SD) was 1.14 ± 0.3 nM. For the same compound, the EC90 ([4]; read-out: EC90 (nM) Mean ± SD) was 3.35 ± 1.3 nM, the EC50 [5] was 1040 nM and the EC50 (BVDV, HRV-16, Flu-B) was greater than 3300 nM. For the same compound, the EC50 ([6]; read-out: EC50) was 0.015 ng/mL, the EC50 ([6]; read-out: EC50 (nM) Mean ± SD) was 0.02 ± 0.002 nM and the EC90 ([6]; read-out: EC90) was 0.02 ng/mL. The EC90 ([6]; read-out: EC90 (nM) Mean ± SD) was 0.03 ± 0.004 nM, the EC50 [7] was greater than 3300 nM and the Fold change ([8]; HCV genotype 1b, variant L31F + Y93H, EC50 relative to WT) was 2,541. It also gave an EC50 [8, 21] of 28 ± 5.4 nM, a Fold change (HCV 1a M28T replicon; HCV genotype 1a, variant M28T, EC50 relative to WT) of 189 and an EC50 (HCV 1a M28T replicon; [21]) of 5.5 ± 2.8 nM. It also gave a Fold change (HCV 2a NS5A WT replicon; HCV genotype 2a, WT, EC50 relative to WT) of 1, an EC50 (HCV 2a NS5A WT replicon; [21]) of 0.12 ± 0.06 nM and a Fold change ([9]; HCV genotype 2a, variant Y93H, EC50 relative to WT) of 816. For the same compound, the EC50 [9, 21] was 96 ± 23 nM, the Fold change (HCV 1b Y93H replicon; HCV genotype 1b, variant Y93H, EC50 relative to WT) was 81 and the EC50 (HCV 1b Y93H replicon; [21]) was 0.9 ± 0.06 nM. It also gave a Fold change ([10]; HCV genotype 4a, variant P58L, EC50 relative to WT) of 197, an EC50 [10, 21] of 3 ± 0.09 nM and a Fold change (HCV 3a NS5A WT replicon; HCV genotype 3a, WT, EC50 relative to WT) of 1. For the same compound, the EC50 (HCV 3a NS5A WT replicon; [21]) was 1.2 nM, the Fold change (HCV 1a Q30K replicon; HCV genotype 1a, variant Q30K, EC50 relative to WT) was 2,965 and the EC50 (HCV 1a Q30K replicon; [21]) was 87 ± 17 nM. The Fold change (HCV 1a Q30R replicon; HCV genotype 1a, variant Q30R, EC50 relative to WT) was 168, the EC50 (HCV 1a Q30R replicon; [21]) was 4.9 ± 1.3 nM and the Fold change (HCV 1a Y93C replicon; HCV genotype 1a, variant Y93C, EC50 relative to WT) was 169. For the same compound, the EC50 (HCV 1a Y93C replicon; [21]) was 5 ± 0.4 nM, the Fold change ([11]; HCV genotype 4a, variant L30H, EC50 relative to WT) was 887 and the EC50 [11, 21] was 14 ± 0.8 nM. The EC50 [12] was greater than 10000 nM, the CC50 (in vitro [13]) was greater than 3300 nM and the EC50 [14] was 0.25 ng/mL. For the same compound, the EC90 [14] was 0.92 ng/mL, the EC50 ([14]; read-out: EC50 (nM) Mean ± SD) was 0.3 ± 0.1 nM and the EC90 ([14]; read-out: EC90 (nM) Mean ± SD) was 1.1 ± 0.3 nM. It also gave a CC50 (in vitro [15]) greater than 5000 nM, an EC50 [16] of 0.04 ng/mL and an EC90 [16] of 0.11 ng/mL. The EC50 ([16]; read-out: EC50 (nM) Mean ± SD) was 0.05 ± 0.01 nM, the EC90 ([16]; read-out: EC90 (nM) Mean ± SD) was 0.13 ± 0.015 nM and the Fold change [17] was 57,587. For the same compound, the Fold change [18] was 37,231, the Fold change [19] was 4,575 and the Fold change [20] was 2,146.
